Measured values taken from patent EP4603105A1, “PHARMACEUTICAL COMPOSITION CONTAINING CYCLIC COMPOUND HAVING SELECTIVE KRAS INHIBITORY EFFECT AGAINST HRAS AND NRAS” (CHUGAI SEIYAKU KABUSHIKI KAISHA, priority 2022, dated 2024).
Where a SMILES comes first, the peptide text is derived from it. Bridges are numbered along the chain shown (N, C = ends). [ ]: non-standard residue; d: D form. hPhe(3-Cl-4-CF3) = N[C@@H](CCc1ccc(C(F)(F)F)c(Cl)c1)C(=O)O; NPrPhe(4-CF3) = CCCN[C@@H](Cc1ccc(C(F)(F)F)cc1)C(=O)O; NMeGly(cPent) = CN[C@H](C(=O)O)C1CCCC1; Pro(4,4-F2) = O=C(O)[C@@H]1CC(F)(F)CN1; NMeL = CN[C@@H](CC(C)C)C(=O)O; Ac5c = NC1(C(=O)O)CCCC1; Aze = O=C(O)[C@@H]1CCN1; Sar = CNCC(=O)O

Columns and labels:
[1] = target: GDP-bound NRAS wild-type protein (Homo sapiens, UniProt P01111); assay: Binding to NRAS by surface plasmon resonance (SPR), KD and KD ratio to KRAS
GDP-bound NRAS wild-type protein, sequence (P01111 whole entry): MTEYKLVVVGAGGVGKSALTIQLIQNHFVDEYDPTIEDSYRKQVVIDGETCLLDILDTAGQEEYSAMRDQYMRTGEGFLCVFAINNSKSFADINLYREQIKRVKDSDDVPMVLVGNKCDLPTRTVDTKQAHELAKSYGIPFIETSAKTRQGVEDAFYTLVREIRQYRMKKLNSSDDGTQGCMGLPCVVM
In short: (§1)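 Single-cycle kinetics on GDP-loaded biotin-Avi RAS captured to ~100–300 RU; 75 s ascending injections, 100 µL/min, 30°C. HBS pH 7.4 + 10 mM MgCl2/10 µM GDP/4% DMSO. 1:1 fit, KD.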

HRAS wild-type protein = HRAS wild-type protein (Homo sapiens, UniProt P01112); assay: Binding to HRAS by surface plasmon resonance (SPR), KD and KD ratio to KRAS
HRAS wild-type protein, sequence (P01112 whole entry): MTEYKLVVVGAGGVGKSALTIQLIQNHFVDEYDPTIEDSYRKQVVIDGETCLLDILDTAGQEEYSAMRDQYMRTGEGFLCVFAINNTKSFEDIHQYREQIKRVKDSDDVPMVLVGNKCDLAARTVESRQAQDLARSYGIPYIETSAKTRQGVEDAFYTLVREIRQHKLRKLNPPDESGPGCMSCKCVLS
In short: as §1

[2] = test system: human lung cancer strain NCI-H441; type: cell-based
In short: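 Proliferation was scored by […] measured after the reagent was added to cultures kept at 37°C in 5% carbon dioxide.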

[3] = ratio of KD for GDP-bound NRAS wild-type protein to KD for KRAS
[4] = ratio of KD for HRAS wild-type protein to KD for KRAS
[5] = ratio of the KD value with respect to GDP-bound NRAS wild-type protein to the KD value with respect to KRAS
[6] = ratio of the KD value with respect to HRAS wild-type protein to the KD value with respect to KRAS

SMILES | IC50 [2] [nM] | NRAS /KRAS [1, 3] | HRAS /KRAS (HRAS wild-type protein; [4]) | NRAS /KRAS [1, 5] | HRAS /KRAS (HRAS wild-type protein; [6])
CCO[C@@H]1C[C@H]2C(=O)NC3(CC(C)(C)C3)C(=O)N(C)[C@@H](C(CC)CC)C(=O)N(C)[C@H](C(=O)N(C)C)CC(=O)N(C)[C@@H](CC3CCC3)C(=O)N[C@@H]([C@@H](C)CC)C(=O)N(C)CC(=O)N(C)[C@H]3C/C=C\CCN(C3=O)[C@@H](Cc3ccc(C)cc3)C(=O)N(C)CC(=O)N[C@@H](CCc3ccc(C(F)(F)F)c(Cl)c3)C(=O)N2C1 [PP2156] | 20.6 |  |  | AA (a compound having 20 or more is denoted as AA) | A (a compound having 10 or more and less than 20 is denoted as A)
CCCN1C(=O)[C@@H]2CCN2C(=O)CN(C)C(=O)[C@H]([C@@H](C)CC)NC(=O)[C@H](CC(C)C)N(C)C(=O)C[C@@H](C(=O)N(C)C)NC(=O)[C@H](C2CCCC2)N(C)C(=O)C2(CCCC2)NC(=O)[C@@H]2CC(F)(F)CN2C(=O)[C@H](CCc2ccc(C(F)(F)F)c(Cl)c2)NC(=O)CN(C)C(=O)[C@@H]1Cc1ccc(C(F)(F)F)cc1 [PP0387] ([NMeL]I[Sar][Aze][NPrPhe(4-CF3)][Sar][hPhe(3-Cl-4-CF3)][Pro(4,4-F2)][Ac5c][NMeGly(cPent)]D-NMe2; lactam N-11) | 20 |  |  | C (A compound having a KD ratio of 0.1 or more and less than 3 is denoted as C) | B (a compound having 3 or more and less than 10 is denoted as B)
CCC[C@H]1C(=O)N[C@@H]([C@@H](C)CC)C(=O)N(C)CC(=O)N(C)[C@H]2C/C=C\CCN(C2=O)[C@@H](Cc2ccc(C)cc2)C(=O)N(C)CC(=O)N[C@@H](CCc2ccc(Cl)c(OC)c2)C(=O)N2C[C@H](OCC)C[C@H]2C(=O)NC2(CC(C)(C)C2)C(=O)N(C)[C@@H](C2CCCC2)C(=O)N(C)[C@H](C(=O)N(C)C)CC(=O)N1C [PP2790] | 59.4 | A (a compound having 10 or more and less than 20 is denoted as A) | A (a compound having 10 or more and less than 20 is denoted as A) |  | 
C=CCCCC[C@H]1C(=O)N[C@@H]([C@@H](C)CC)C(=O)N(C)CC(=O)N(C)[C@H]2CCCCN(C2=O)[C@@H](Cc2ccc(C(F)(F)F)cc2)C(=O)N(C)CC(=O)N[C@@H](CCc2cc(F)c(C(F)(F)F)c(F)c2)C(=O)N2C[C@H](OCC)C[C@H]2C(=O)N[C@](C)(CC=C)C(=O)N(C)[C@@H](C2CCCC2)C(=O)N(C)[C@H](C(=O)N2CCOCC2)CC(=O)N1C [PP0877] | 18.8 | C (A compound having a KD ratio of 0.1 or more and less than 3 is denoted as C) | B (a compound having 3 or more and less than 10 is denoted as B) |  | 

These reach a lower IC50 [2]. Values come first.

IC50 [2] [nM] | SMILES | NRAS /KRAS [1, 3] | HRAS /KRAS (HRAS wild-type protein; [4]) | NRAS /KRAS [1, 5] | HRAS /KRAS (HRAS wild-type protein; [6])
1.7 | CCCO[C@@H]1C[C@H]2C(=O)NC3(CC(C)(C)C3)C(=O)N(C)[C@@H](C3CCCC3)C(=O)N(C)[C@H](C(=O)N(C)C)CC(=O)N(C)[C@H]3CCCCc4ccc(cc4)C[C@@H](C(=O)N(C)CC(=O)N[C@@H](CCc4ccc(C(F)(F)F)c(OC)c4)C(=O)N2C1)N1CC/C=C\C[C@@H](C1=O)N(C)C(=O)CN(C1CC1)C(=O)[C@H]([C@@H](C)CC)NC3=O [PP3082] | B (a compound having 3 or more and less than 10 is denoted as B) | B (a compound having 3 or more and less than 10 is denoted as B) |  | 
12.4 | CCO[C@@H]1C[C@H]2C(=O)NC3(CC(C)(C)C3)C(=O)N(C)[C@@H](C(CC)CC)C(=O)N(C)[C@H](C(=O)N(C)C)CC(=O)N(C)[C@@H](CC(C)C)C(=O)N[C@@H]([C@@H](C)CC)C(=O)N(C)CC(=O)N(C)[C@H]3C/C=C\CCN(C3=O)[C@@H](Cc3ccc(C(F)(F)F)cc3)C(=O)N(C)CC(=O)N[C@@H](CCc3ccc(C(F)(F)F)c(OC)c3)C(=O)N2C1 [PP2161] |  |  | AA (a compound having 20 or more is denoted as AA) | A (a compound having 10 or more and less than 20 is denoted as A)
14.9 | CCCO[C@H]1CCN2C(=O)[C@H](CCc3cc(F)c(C(F)(F)F)c(F)c3)NC(=O)CN(C)C(=O)[C@H](Cc3ccc(C(F)(F)F)cc3)N3CCCC[C@@H](C3=O)N(C)C(=O)CN(C)C(=O)[C@H]([C@@H](C)CC)NC(=O)[C@H](CC(C)C)N(C)C(=O)C[C@@H](C(=O)N3CCOCC3)N(C)C(=O)[C@H](C3CCCC3)N(C)C(=O)C3(CCC3)NC(=O)[C@H]12 [PP1077] | B (a compound having 3 or more and less than 10 is denoted as B) | B (a compound having 3 or more and less than 10 is denoted as B) |  | 
